Measurements published in patent publication US20250129078A1, “ERBB2 INHIBITORS” (Cogent Biosciences, Inc., priority 2023, published 2025).

These compounds were tested against EGFR WT (Homo sapiens (Human), UniProt P00533) (assay: ErbB enzyme assay (CisBio HTRF-KinEASE-TK), EGFR WT). Conditions: ATP at Km (25 μM), 1 h incubation.
Format: biochemical
Procedure: In vitro enzyme assays based on CisBio HTRF-KinEASE-TK technology were used to determine compound potencies. […]. Compounds were prepared as a three-fold serial dilution in DMSO and added to the assay to give the appropriate final concentration. After a 1 h incubation at ambient temperature, the reaction was quenched by adding 10 μL of 62.5 nM Sa-XL665 and 0.25×TK-Ab-Cryptate in HTRF detection buffer (all from CisBio, part of cat #62TKOPEC). After another 1 h incubation at ambient temperature, the extent of substrate phosphorylation was determined using a PerkinElmer EnVision multimode plate reader via time-resolved fluorescence dual wavelength detection. The percent of control (POC) was calculated using the ratio of emission at […] to the emission at 620 nm. One hundred POC was determined using DMSO only controls (no test compounds present) and zero POC was determined using pre-quenched controls reactions. A 4-parameter logistic equation was fit to the POC values as a function of the test compound concentration and the IC50 value was determined as the point where the curve crossed 50 POC.

EGFR WT, sequence (P00533 25-1210): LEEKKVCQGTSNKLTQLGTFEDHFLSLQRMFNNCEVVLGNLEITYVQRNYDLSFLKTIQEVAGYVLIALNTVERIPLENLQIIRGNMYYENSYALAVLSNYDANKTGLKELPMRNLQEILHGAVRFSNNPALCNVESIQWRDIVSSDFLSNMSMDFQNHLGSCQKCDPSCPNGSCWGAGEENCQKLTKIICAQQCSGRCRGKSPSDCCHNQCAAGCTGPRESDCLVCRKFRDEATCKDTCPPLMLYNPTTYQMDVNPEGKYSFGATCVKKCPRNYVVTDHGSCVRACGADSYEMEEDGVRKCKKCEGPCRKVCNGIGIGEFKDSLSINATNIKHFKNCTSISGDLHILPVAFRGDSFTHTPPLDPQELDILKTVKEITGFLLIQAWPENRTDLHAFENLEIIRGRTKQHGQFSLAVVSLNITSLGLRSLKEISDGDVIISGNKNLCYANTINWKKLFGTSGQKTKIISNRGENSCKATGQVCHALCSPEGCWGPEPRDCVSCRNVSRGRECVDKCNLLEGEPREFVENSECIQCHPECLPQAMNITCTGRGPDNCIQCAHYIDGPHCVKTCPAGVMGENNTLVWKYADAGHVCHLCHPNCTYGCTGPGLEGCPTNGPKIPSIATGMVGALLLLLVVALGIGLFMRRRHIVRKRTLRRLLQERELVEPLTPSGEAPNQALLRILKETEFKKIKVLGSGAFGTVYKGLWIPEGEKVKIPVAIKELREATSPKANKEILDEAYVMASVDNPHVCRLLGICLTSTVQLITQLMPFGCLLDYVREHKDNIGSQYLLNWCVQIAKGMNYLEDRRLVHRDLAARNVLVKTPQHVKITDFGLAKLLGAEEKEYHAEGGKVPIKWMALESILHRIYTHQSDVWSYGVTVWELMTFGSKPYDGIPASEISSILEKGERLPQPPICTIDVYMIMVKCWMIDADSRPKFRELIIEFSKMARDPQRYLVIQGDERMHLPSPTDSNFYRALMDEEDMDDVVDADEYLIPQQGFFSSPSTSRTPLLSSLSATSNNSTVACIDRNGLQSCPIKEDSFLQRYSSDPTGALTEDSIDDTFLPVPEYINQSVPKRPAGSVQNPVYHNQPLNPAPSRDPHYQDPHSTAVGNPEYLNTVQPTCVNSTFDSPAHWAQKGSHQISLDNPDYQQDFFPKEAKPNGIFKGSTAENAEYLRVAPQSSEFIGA

Structure (SMILES) | IC50 [nM]
C=CC(=O)N1CCN(c2ncc3ncnc(Nc4ccc(Oc5cnc6c(c5)ncn6C)c(C)c4F)c3n2)CC1 [Compound 118, 1-(4-(8-((2-fluoro-3-methyl-4-((3-methyl-3H-imidazo[4,5-b]pyridin-6-yl)oxy)phenyl)amino)pyrimido [5,4-d]pyrimidin-2-y1)piperazin-1-yl)prop-2-en-1-one] | < 50
C=CC(=O)N1CCN(c2ncc3ncnc(Nc4ccc(Oc5cc(F)c6c(c5)ncn6C)c(C)c4F)c3n2)CC1 [Compound 111, 1-(4-(8-((2-fluoro-4-((7-fluoro-1-methyl-1H-benzo[d]imidazol-5-yl)oxy)-3-methylphenyl)amino)pyrimido[5,4-d]pyrimidin-2-yl)piperazin-1-y1)prop-2-en-1-one] | < 50
C=CC(=O)N1CCN(c2ccc3ncnc(Nc4cc(C)c(Oc5ccc6c(c5)nnn6C)cc4OC(F)F)c3n2)CC1(C)C [Compound 305, 1-(4-(4-((2-(difluoromethoxy)-5-methyl-4-((1-methyl-1H-benzo[d][1,2,3]triazol-5-yl)oxy)phenyl)amino)pyrido[3,2-d]pyrimidin-6-yl)-2,2-dimethylpiperazin-1-yl)prop-2-en-1-one] | 100 to 500
C=CC(=O)N[C@H]1CCN(c2ncc3ncnc(Nc4ccc(Oc5ccc6c(c5)nnn6C)c(C)c4)c3n2)C1 [Compound 154, (S)-N-(1-(8-((3-methyl-4-((1-methyl-1H-benzo[d][1,2,3]triazol-5-yl)oxy)phenyl)amino)pyrimido [5,4-d]pyrimidin-2-yl)pyrrolidin-3-yl)acrylamide] | 100 to 500
C=C(F)C(=O)N1CCN(c2ncc3ncnc(Nc4ccc(Oc5ccc6c(c5)nnn6C)c(C)c4)c3n2)C[C@H]1CF (single isomer, unassigned) [Compound 219] | ≥ 1000
C=CC(=O)N1CCN(c2ncc3ncnc(Nc4ccc(Oc5ccc6c(c5)nnn6C)c(C)c4)c3n2)C[C@@H]1CF (single isomer, unassigned) [Compound 199] | < 50
C=C(COC)C(=O)NC1(C)CCN(c2ncc3ncnc(Nc4ccc(Oc5ccc6c(c5)nnn6C)c(C)c4)c3n2)CC1 [Compound 215, 2-(methoxy-methyl)-N-(4-methyl-1-(8-((3-methyl-4-((1-methyl-1H-benzo[d][1,2,3]triazol-5-yl)oxy)phenyl)amino)pyrimido [5,4-d]pyrimidin-2-yl)piperidin-4-yl)acrylamide] | ≥ 1000
C=CC(=O)N[C@]1(C)CCN(c2ccc3ncnc(Nc4ccc(Oc5ccc6c(c5)nnn6C)c(C)c4)c3n2)C1 [Compound 263, (R)-N-(3-methyl-1-(4-((3-methyl-4-((1-methyl-1H-benzo[d][1,2,3]triazol-5-yl)oxy)phenyl)amino)pyrido[3,2-d]pyrimidin-6-yl)pyrrolidin-3-yl)acrylamide] | 100 to 500
C=CC(=O)N1CCN(c2nc3c(Nc4ccc(Oc5ccc6c(c5)nnn6C)c(C)c4)ncnc3cc2F)CC1 [Compound 373, 1-(4-(7-fluoro-4-((3-methyl-4-((1-methyl-1H-benzo[d][1,2,3]triazol-5-yl)oxy)phenyl)amino)pyrido[3,2-d]pyrimidin-6-yl)piperazin-1-yl)prop-2-en-1-one] | 100 to 500
C=CC(=O)N1CCC(Oc2ncc3ncnc(Nc4ccc(Oc5ccc6c(c5)ncn6C)c(OC)c4)c3n2)CC1 [Compound 379, 1-(4-((8-((3-methoxy-4-((1-methyl-1H-benzo[d]imidazol-5-yl)oxy)phenyl)amino)pyrimido[5,4-d]pyrimidin-2-yl)oxy)piperidin-1-yl)prop-2-en-1-one] | 100 to 500

Further lines, results first:

IC50 [nM] | Structure (SMILES)
< 50 | C=CC(=O)N1CCN(c2ccc3ncnc(Nc4ccc(Oc5ccc6c(c5)nnn6C)c(C)c4)c3n2)C[C@H]1CC#N [Compound 84, (R)-2-(1-acryloyl-4-(4-((3-methyl-4-((1-methyl-H-benzo[d][1,2,3]triazol-5-yl)oxy)phenyl)amino)pyrido[3,2-d]pyrimidin-6-yl)piperazin-2-yl)acetonitrile]
100 to 500 | C=CC(=O)N[C@H]1CN(c2ccc3ncnc(Nc4ccc(Oc5ccc6c(c5)nnn6C)c(C)c4F)c3n2)C[C@@H]1F [Compound 300, N-((3S,4S)-4-fluoro-1-(4-((2-fluoro-3-methyl-4-((1-methyl-1H-benzo[d][1,2,3]triazol-5-yl)oxy)phenyl)amino)pyrido[3,2-d]pyrimidin-6-yl)pyrrolidin-3-yl)acrylamide]
100 to 500 | C=CC(=O)N[C@@H]1CCN(c2ccc3ncnc(Nc4ccc(Oc5ccc6c(c5)nnn6C)c(C)c4F)c3n2)CC1(C)C [Compound 344, (R)-N-(1-(4-((2-fluoro-3-methyl-4-((1-methyl-1H-benzo[d][1,2,3]triazol-5-yl)oxy)phenyl)amino)pyrido[3,2-d]pyrimidin-6-yl)-3,3-dimethylpiperidin-4-yl)acrylamide]
< 50 | C=CC(=O)N1CCC=C(c2ccc3ncnc(Nc4ccc(Oc5ccc6c(c5)nnn6C)c(C)c4)c3n2)C1 [Compound 407, 1-(5-(4-((3-methyl-4-((1-methyl-1H-benzo[d][1,2,3]triazol-5-yl)oxy)phenyl)amino)pyrido[3,2-d]pyrimidin-6-yl)-3,6-dihydropyridin-1(2H)-yl)prop-2-en-1-one]
100 to 500 | C=CC(=O)N1C[C@@H](N(C)c2ccc3ncnc(Nc4ccc(Oc5ccc6c(c5)nnn6C)c(C)c4F)c3n2)CC[C@H]1C [Compound 352, 1-((2R,5S)-5-((4-((2-fluoro-3-methyl-4-((1-methyl-1H-benzo[d][1,2,3]triazol-5-yl)oxy)phenyl)amino)pyrido[3,2-d]pyrimidin-6-yl)(methyl)amino)-2-methylpiperidin-1-yl)prop-2-en-1-one]
< 50 | C=CC(=O)N1CCN(c2ccc3ncnc(Nc4ccc(Oc5ccc6c(c5)nnn6C)c(C)c4)c3n2)C[C@H]1COC [Compound 77, (S)-1-(2-(methoxymethyl)-4-(4-((3-methyl-4-((1-methyl-1H-benzo[d][1,2,3]triazol-5-yl)oxy)phenyl)amino)pyrido[3,2-d]pyrimidin-6-yl)piperazin-1-yl)prop-2-en-1-one]
≥ 1000 | C=CC(=O)N[C@@H]1C[C@H](C)CN(c2ccc3ncnc(Nc4ccc(Oc5ccc6c(c5)nnn6C)c(C)c4F)c3n2)C1 (single isomer, unassigned) [Compound 336]
100 to 500 | C=CC(=O)N[C@H]1CN(c2ccc3ncnc(Nc4ccc(Oc5ccc6c(c5)nnn6C)c(C)c4F)c3n2)CC[C@@H]1C (single isomer, unassigned) [Compound 346]
100 to 500 | C=CC(=O)N1CC[C@@H](N(C)c2ncc3ncnc(Nc4ccc(Oc5ccc6c(c5)nnn6C)c(C)c4)c3n2)C1 [Compound 128, (R)-1-(3-(methyl(8-((3-methyl-4-((1-methyl-1H-benzo[d][1,2,3]triazol-5-yl)oxy)phenyl)amino)pyrimido[5,4-d]pyrimidin-2-yl)amino)pyrrolidin-1-yl)prop-2-en-1-one]
< 50 | C=CC(=O)N[C@]1(C)CCCN(c2ccc3ncnc(Nc4ccc(Oc5ccc6c(c5)nnn6C)c(C)c4F)c3n2)C1 [Compound 303, (R)-N-(1-(4-((2-fluoro-3-methyl-4-((1-methyl-1H-benzo[d][1,2,3]triazol-5-yl)oxy)phenyl)amino)pyrido[3,2-d]pyrimidin-6-yl)-3-methylpiperidin-3-yl)acrylamide]
